Data: patent publication US11535643B2, “Macrolides with modified desosamine sugars and uses thereof” (President and Fellows of Harvard College, priority 2015, dated 2022)
Converted amounts (≈) assume the structure as drawn. Read-outs that look alike come from different tables or passages of the source.

Key:
Format in all cases: cell-based
A. baumannii = test: Broth dilution MIC determination (CLSI) against A. baumannii strains; details: Acinetobacter baumannii
Method in brief: (§1)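 MICs were determined by CLSI standard broth dilution against several strains per species, including multidrug-resistant and macrolide-resistant strains. Azithromycin and solithromycin served as control compounds.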

H. influenzae = test: Broth dilution MIC determination (CLSI) against H. influenzae strains; details: Haemophilus influenzae
Method in brief: as §1

S. pyogenes = test: Broth dilution MIC determination (CLSI) against S. pyogenes strains; details: Streptococcus pyogenes
Method in brief: as §1

K. pneumoniae = test: Broth dilution MIC determination (CLSI) against K. pneumoniae strains; details: Klebsiella pneumoniae
Method in brief: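 Azithromycin and solithromycin served as controls; MICs were obtained by standard CLSI broth dilution on a strain panel including multidrug-resistant and macrolide-resistant isolates.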

S. aureus = test: Broth dilution MIC determination (CLSI) against S. aureus strains; details: Staphylococcus aureus
Method in brief: as §1

E. faecalis = test: Broth dilution MIC determination (CLSI) against E. faecalis strains; details: Enterococcus faecalis
Method in brief: as §1

E. coli = test: Broth dilution MIC determination (CLSI) against E. coli strains; details: Escherichia coli
Method in brief: as §1

S. pneumoniae = test: Broth dilution MIC determination (CLSI) against S. pneumoniae strains; details: Streptococcus pneumoniae
Method in brief: as §1

P. aeruginosa = test: Broth dilution MIC determination (CLSI) against P. aeruginosa strains
Method in brief: as §1

[1] = ATCC19606, ATCC19606, read-out: MIC A. baumannii ATCC19606
[2] = imipenem-resistant, read-out: MIC A. baumannii imipenem-resistant
[3] = ATCC49247, ATCC49247, read-out: MIC H. influenzae ATCC49247
[4] = erythro > 4, azithro 1, read-out: MIC H. influenzae erythro > 4, azithro 1
[5] = ATCC19615, ATCC19615, read-out: MIC S. pyogenes ATCC19615
[6] = macrolide-resistant, read-out: MIC S. pyogenes macrolide-resistant
[7] = ATCC10031, ATCC10031, read-out: MIC K. pneumoniae ATCC10031
[8] = KPC-2, read-out: MIC K. pneumoniae KPC-2
[9] = ATCC29213, ATCC29213, read-out: MIC S. aureus ATCC29213
[10] = MRSA / USA100, MRSA: USA100, read-out: MIC S. aureus MRSA: USA100
[11] = MRSA / USA300, MRSA: USA300, read-out: MIC S. aureus MRSA: USA300
[12] = USA600, USA600, GISA, read-out: MIC S. aureus USA600, GISA
[13] = read-out: MIC S. aureus erm A genotype
[14] = ATCC29212, ATCC29212, read-out: MIC E. faecalis ATCC29212
[15] = Vancomycin-resistant, read-out: MIC E. faecalis Vancomycin-resistant
[16] = ATCC25922, ATCC25922, read-out: MIC E. coli ATCC25922
[17] = read-out: MIC E. coli NDM-1, NDM-1
[18] = ATCC49619, ATCC49619, read-out: MIC S. pneumoniae ATCC49619
[19] = erm B + mef A genotype, read-out: MIC S. pneumoniae erm B + mef A genotype
[20] = erm B + tet(M, O) genotype, read-out: MIC S. pneumoniae erm B + tet(M, O) genotype
[21] = read-out: MIC S. pneumoniae mef A genotype, mef A genotype
[22] = read-out: MIC S. pneumoniae mef A genotype, mef A genotype, first of two such columns (c3)
[23] = Pseudomonas aeruginosa, ATCC27853; read-out: MIC P. aeruginosa ATCC27853

| Structure (SMILES) | MIC (A. baumannii; [1]) [µg/mL] | MIC (A. baumannii; [2]) [µg/mL] | MIC (H. influenzae; [3]) [µg/mL] | MIC (H. influenzae; [4]) [µg/mL] | MIC (S. pyogenes; [5]) [µg/mL] | MIC (S. pyogenes; [6]) [µg/mL] | MIC (K. pneumoniae; [7]) [µg/mL] | MIC (K. pneumoniae; [8]) [µg/mL] | MIC (S. aureus; [9]) [µg/mL] | MIC (S. aureus; [10]) [µg/mL] | MIC (S. aureus; [11]) [µg/mL] | MIC (S. aureus; [12]) [µg/mL] | MIC (S. aureus; [13]) [µg/mL] | MIC (E. faecalis; [14]) [µg/mL] | MIC (E. faecalis; [15]) [µg/mL] | MIC (E. coli; [16]) [µg/mL] | MIC (E. coli; [17]) [µg/mL] | MIC (S. pneumoniae; [18]) [µg/mL] | MIC (S. pneumoniae; [21]) [µg/mL] | MIC (S. pneumoniae; [22]) [µg/mL] | also measured |
| --- | --- | --- | --- | --- | --- | --- | --- | --- | --- | --- | --- | --- | --- | --- | --- | --- | --- | --- | --- | --- | --- |
| C=CCOC(=O)NCC1CC(N(C)C)C(O)[C@H](O[C@@H]2[C@@H](C)C(=O)[C@@H](C)C(=O)O[C@H](CC)[C@@]3(C)OC(=O)N(CCCCn4cc(-c5cccc(N)c5)nn4)[C@@H]3[C@@H](C)NC[C@H](C)C[C@@]2(C)OC)O1 (stereo partly drawn) [FSM-21795] | 32 (≈ 34.5 µM) | 32 (≈ 34.5 µM) | 4 (≈ 4.31 µM) | 8 (≈ 8.63 µM) | 0.0625 (≈ 0.0674 µM) | 2 (≈ 2.16 µM) | 8 (≈ 8.63 µM) | > 32 | 16 (≈ 17.3 µM) | > 32 | > 32 | > 32 | > 32 | 1 (≈ 1.08 µM) | > 32 | 16 (≈ 17.3 µM) | > 32 | 0.25 (≈ 0.27 µM) | 16 (≈ 17.3 µM) | 4 (≈ 4.31 µM) | MIC (S. pneumoniae; [19]): > 32 µg/mL; MIC (S. pneumoniae; [20]): 0.0625 µg/mL; MIC (P. aeruginosa; [23]): 32 µg/mL (≈ 34.5 µM) |
| CC[C@H]1OC(=O)[C@H](C)C(=O)[C@H](C)[C@@H](O[C@@H]2OC(CNC(=O)c3cnccn3)CC(N(C)C)C2O)[C@](C)(OC)C[C@@H](C)CN[C@H](C)[C@H]2N(CCCCn3cc(-c4cccc(N)c4)nn3)C(=O)O[C@]12C (stereo partly drawn) [FSM-21881] | > 32 | > 32 | 8 (≈ 8.43 µM) | 2 (≈ 2.11 µM) | ≤ 0.0312 | 2 (≈ 2.11 µM) | 8 (≈ 8.43 µM) | > 32 | 8 (≈ 8.43 µM) | > 32 | > 32 | > 32 | > 32 | 2 (≈ 2.11 µM) | > 32 | 16 (≈ 16.9 µM) | > 32 | ≤ 0.0312 | 2 (≈ 2.11 µM) | 0.5 (≈ 0.527 µM) | MIC (A. baumannii; IMP-4, read-out: MIC A. baumannii IMP-4): > 32 µg/mL; MIC (A. baumannii; chromosomal class C, read-out: MIC A. baumannii chromosomal class C): > 32 µg/mL; MIC (K. pneumoniae; SHV-12, read-out: MIC K. pneumoniae SHV-12): > 32 µg/mL; MIC (K. pneumoniae; TEM-10, read-out: MIC K. pneumoniae TEM-10): 32 µg/mL (≈ 33.7 µM); MIC (E. coli; read-out: MIC E. coli CTX-M-14, CTX-M-14): > 32 µg/mL; MIC (E. coli; read-out: MIC E. coli TEM-1, TEM-1): 32 µg/mL (≈ 33.7 µM); MIC (S. pneumoniae; [19]): 4 µg/mL; MIC (S. pneumoniae; [20]): ≤ 0.0312 µg/mL; MIC (P. aeruginosa; [23]): > 32 µg/mL; MIC (P. aeruginosa; Pseudomonas aeruginosa; read-out: MIC P. aeruginosa HPA101-1477): > 32 µg/mL |
| CC[C@H]1OC(=O)[C@H](C)C(=O)[C@H](C)[C@@H](O[C@@H]2OC(CNC=N)CC(N(C)C)C2O)[C@](C)(OC)C[C@@H](C)CN[C@H](C)[C@H]2N(CCCCn3cc(-c4cccc(N)c4)nn3)C(=O)O[C@]12C (stereo partly drawn) [FSM-21861] |  |  |  |  |  |  |  |  |  |  |  |  | > 32 |  |  | > 32 | > 32 | 0.5 (≈ 0.575 µM) | 8 (≈ 9.19 µM) | 4 (≈ 4.6 µM) | MIC (A. baumannii; ATCC19606, read-out: MIC A. baumannii ATCC19606): > 32 µg/mL; MIC (A. baumannii; read-out: MIC A. baumannii imipenem-resistant): > 32 µg/mL; MIC (H. influenzae; ATCC49247, read-out: MIC H. influenzae ATCC49247): 32 µg/mL (≈ 36.8 µM); MIC (H. influenzae; read-out: MIC H. influenzae erythro > 4, azithro 1): 32 µg/mL (≈ 36.8 µM); MIC (S. pyogenes; ATCC19615, read-out: MIC S. pyogenes ATCC19615): 0.5 µg/mL (≈ 0.575 µM); MIC (S. pyogenes; read-out: MIC S. pyogenes macrolide-resistant): 8 µg/mL (≈ 9.19 µM); MIC (K. pneumoniae; ATCC10031, read-out: MIC K. pneumoniae ATCC10031): 16 µg/mL (≈ 18.4 µM); MIC (K. pneumoniae; read-out: MIC K. pneumoniae KPC-2): > 32 µg/mL; MIC (S. aureus; ATCC29213, read-out: MIC S. aureus ATCC29213): > 32 µg/mL; MIC (S. aureus; MRSA / USA100, read-out: MIC S. aureus MRSA: USA100): > 32 µg/mL; MIC (S. aureus; MRSA / USA300, read-out: MIC S. aureus MRSA: USA300): > 32 µg/mL; MIC (S. aureus; USA600, read-out: MIC S. aureus USA600, GISA): > 32 µg/mL; MIC (E. faecalis; ATCC29212, read-out: MIC E. faecalis ATCC29212): 4 µg/mL (≈ 4.6 µM); MIC (E. faecalis; read-out: MIC E. faecalis Vancomycin-resistant): > 32 µg/mL; MIC (S. pneumoniae; read-out: MIC S. pneumoniae erm B + mef A genotype, erm B + mef A genotype): 32 µg/mL; MIC (S. pneumoniae; read-out: MIC S. pneumoniae erm B + tet(M, O) genotype, erm B + tet(M, O) genotype): 0.25 µg/mL; MIC (P. aeruginosa; Pseudomonas aeruginosa, ATCC27853, read-out: MIC P. aeruginosa ATCC27853): > 32 µg/mL |
| CC[C@H]1OC(=O)[C@H](C)C(=O)[C@H](C)[C@@H](O[C@@H]2OC(CN(CCN)CCN)CC(N(C)C)C2O)[C@](C)(OC)C[C@@H](C)CN[C@H](C)[C@H]2N(CCCCn3cc(-c4cccc(N)c4)nn3)C(=O)O[C@]12C (stereo partly drawn) [FSM-21877] | > 32 | > 32 | 32 (≈ 34.4 µM) | 32 (≈ 34.4 µM) | 0.5 (≈ 0.538 µM) | 16 (≈ 17.2 µM) | 16 (≈ 17.2 µM) | 32 (≈ 34.4 µM) | > 32 | > 32 | > 32 | > 32 | > 32 | 8 (≈ 8.61 µM) | > 32 | > 32 | 32 (≈ 34.4 µM) | 1 (≈ 1.08 µM) | 16 (≈ 17.2 µM) | 8 (≈ 8.61 µM) | MIC (S. pneumoniae; [19]): 32 µg/mL; MIC (S. pneumoniae; [20]): 0.5 µg/mL; MIC (P. aeruginosa; [23]): > 32 µg/mL |
